# Measured values: patent US20130156865A1, “POTENTIATION INDUCED BY PDE4 INHIBITORS IN THE TREATMENT OF LEUKEMIA” (Chiesi Farmaceutici S.p.A., priority 2011, published 2013)
# “Also recorded” adds a separate entry of the source.
# Tests used:
# [1] = tested on: Acute Promyelocytic Leukemia (APL) cell line NB4 and Arsenic resistant NB4-AsR cell line; assay: Annexin-V apoptosis assay with PDE-4 inhibitor pre-treatment plus ATO in APL cells; type: cell-based, human
# Protocol: (§1) The Parental Acute Promyelocytic Leukemia (APL) cell line NB4 and the Arsenic resistant NB4-AsR cell line were seeded at 0.8×10^5 cells/mL of fresh RPMI 1640 medium (Sigma Aldrich), supplemented with 10% fetal calf serum, 2 mM L-glutamine, penicillin G (100 U/mL), streptomycin ([…]). Cells were pre-treated for 30 minutes with vehicle (DMSO), CHF-6001 (1 and 10 μM), Roflumilast (1 and 10 μM) or Piclamilast (1, and 50 μM) and then incubated with ATO at the indicated doses. After 72 hours cells were collected, stained with Annexin-V FITC (according to the manufacturer's recommendations—Bender MedSystems) and processed by flow cytometry (FACSCalibur, Becton Dickinson, San Josè, Calif.) to evaluate the percentage of apoptosis as described in Lunghi P et al., Leukemia. 2005; 19(2):234-44, which is incorporated herein by reference in its entirety.
# [2] = tested on: Imatinib-sensitive (K562-SENS, LAMA-SENS, KCL22-SENS) and Imatinib-resistant (K562-RES, LAMA-RES, KCL22-RES and BAF3 p210-T315I) chronic myeloid leukemia (CML) …; assay: Apoptosis (sub-G1 propidium iodide or Annexin-V) with PDE-4 inhibitor plus ATO in CML cell lines; type: cell-based, human
# Protocol: as §1
# The Imatinib-sensitive (K562-SENS, LAMA-SENS, KCL22-SENS) and Imatinib-resistant (K562-RES, LAMA-RES, KCL22-RES and BAF3 p210-T315I) chronic myeloid leukemia (CML) cell lines were cultured with the PDE-4 inhibitor and ATO as described in Example 1. After 72 hours cells were harvested, stained with Propidium Iodide to evaluate the percentage of cells with hypodiploid DNA content (sub-G1) or with Annexin-V FITC as described in Lunghi P et al Leukemia. 2005; 19(2):234-44, which is incorporated herein by reference in its entirety.
# [3] = tested on: LAMA-RES, NB4 and NB4-AsR cell lines; assay: C2/ATO-induced apoptosis (annexin V) in the presence of caspase inhibitors; type: cell-based, human; conditions: caspase inhibitors 25 μM, 1 hour pre-treatment; 24 hours; FIG. 4
# Source text: On the Y-axis the histograms represent the percentage of apoptotic cells measured by Annexin V staining (% ANNEXIN V+). NEG indicates peptide control Cbz-Phe-Ala-fluoromethyl ketone (Z-FA-FMK), CASPASE-8 IN, specific caspase-8 inhibitor Cbz-Ile-Glu(Ome)-Thr-Asp(Ome)-fluoromethyl ketone (Z-IETD-FMK), CASPASE-9 IN, specific caspase-9 inhibitor Cbz-Leu-Glu(Ome)-His-Asp(Ome)-fluoromethyl ketone (Z-LEHD-FMK), PANCASPASE IN, pancaspase inhibitor Cbz-Val-Ala-Asp(Ome)-fluoromethyl ketone (Z-VAD-FMK); CTR, control; C2, compound C2; ATO, arsenic trioxide.
# LAMA-RES, NB4 and NB4-AsR cell lines were pretreated with selective caspase inhibitors for 1 hour before adding C2 and/or ATO. After 24 hours the percentage of apoptotic cells was determined by the annexin V method. More specifically, the caspase inhibitors are: NEG peptide control Cbz-Phe-Ala-fluoromethyl ketone (Z-FA-FMK), CASPASE-8 inhibitor Cbz-Ile-Glu(Ome)-Thr-Asp(Ome)-fluoromethyl ketone (Z-IETD-FMK), CASPASE-9 inhibitor Cbz-Leu-Glu(Ome)-His-Asp(Ome)-fluoromethyl ketone (Z-LEHD-FMK), and the PANCASPASE inhibitor Cbz-Val-Ala-Asp(Ome)-fluoromethyl ketone (Z-VAD-FMK), all provided from Alexis (San Diego, Calif., USA). All caspase inhibitors were dissolved in DMSO, stocked in aliquots at −20° C., and used at the final concentration of 25 μM.
# [4] = tested on: NB4 and NB4-AsR Acute Promyelocytic Leukemia cell lines; assay: Myeloid differentiation (CD11b expression, NBT reduction test) with ATRA or low-dose ATO; type: cell-based, human
# Protocol: NB4 and NB4-AsR were seeded at 0.8×10^5 cells/mL in presence of vehicle (DMSO) or the PDE-4 inhibitor at the indicated doses for 30 minutes and then incubated with 0.1 μM and 1 μM of all-trans retinoic acid ([…]) promoting cell differentiation (see Chen GQ et al., Blood. 1997; 89(9):3345-53, which is incorporated herein by reference in its entirety). After 72 hours of treatment, early and late stage of differentiation was evaluated. More specifically, expression of the cell surface CD11b, an early-expressed maturation marker, was measured by flow cytometry using fluorescein isothiocyanate (FITC)-conjugated anti-CD11b antibody (Sigma Chemical Co.) according to the manufacturer's protocol. Late stage differentiation of leukemic cells was detected using the microscopic nitroblue tetrazolium (NBT) reduction test (Chen GQ et al., vide supra).
# This assay is conducted by counting the cells containing blue NBT formazan deposits, which are formed by reduction of the membrane permeable, water-soluble, yellow-colored, nitroblue tetrazolium (NBT) by superoxide anions O2. Over 300 cells were counted per sample, and variation in replicates was routinely within 10%.
# [5] = tested on: NB4 and NB4-AsR cell lines; assay: Myeloid marker panel (CD33, CD38, CD11b, CD14, CD15) and NBT reduction with C2/ATRA; type: cell-based, human
# Protocol: On the Y-axis the histograms represent, for each cell line, the percentage of myeloid differentiation measured using a panel of myeloid markers (CD33, CD38, CD11b, CD15, CD14) and nitroblue tetrazolium reduction test (% NBT+). Vehicle indicates Dimethyl sulfoxide (DMSO); C2, compound C2; CTR, control; ATRA, all-trans retinoic acid.
# NB4 e NB4-AsR cell lines were cultured with C2/ATRA for 72 hours, after which cells were harvested for determination of NBT reduction and expression of differentiation-associated surface antigens CD33, CD38, CD11b, CD14 and CD15. Cytofluorimetric analysis of surface antigen expression was performed using the following monoclonal antibodies all provided by Sigma Chemical: fluorescein isothiocyanate (FITC)-conjugated anti-CD33 antibody, (FITC)-conjugated anti-CD38 antibody, (FITC)-conjugated anti-CD11b antibody, (FITC)-conjugated anti-CD 14 antibody and (FITC)-conjugated anti-CD15 antibody. Briefly, each antibody was incubated at the proper dilution with cell samples in PBS containing 1% BSA for 30 minutes at room temperature. Cells were then washed and resuspended with PBS and analyzed by flow cytometer.
# [6] = tested on: chronic lymphocytic leukemia (CLL) B-lymphocytes; conditions: in vitro; Mentz F et al., Br. J. Hematol. 1995; cited from earlier work
SMILES,"effectiveness versus roflumilast or piclamilast in potentiating the proapoptotic effects of ATO ([1]; APL cells incl. ATO-resistant, P<0.001 versus same doses of comparator + ATO, P<0.005 C2 1 μM versus comparator 10 μM)","potentiation of the proapoptotic effects of ATO (% Annexin V+ cells) ([1]; C2 1 μM/10 μM + ATO 1 μM, 72 hours, P<0.001 versus either mono-treatment, FIG. 1)","potentiation of the proapoptotic effects of ATO (% sub-G1 or % Annexin V+) ([2]; C2 1 μM/10 μM + ATO 2 μM (ATO 1 μM in Baf3-T315I), 72 hours, P<0.001, P<0.05 in K562-RES, versus either mono-treatment, FIG. 2)","effectiveness versus roflumilast or piclamilast in potentiating the proapoptotic effects of ATO ([2]; CML cell lines, same doses of comparator + ATO, P<0.001 to P<0.05)",enhancement of ATO-induced cytotoxicity and caspase dependence (% Annexin V+) [3],"expression of the myeloid marker CD11b (% CD11b+) ([4]; 72 hours, FIG. 6)","effectiveness versus Roflumilast or Piclamilast in potentiating the cytodifferentiating action of ATRA or ATO ([4]; ATO-sensitive or ATO-resistant APL cell lines, same doses of comparator, P<0.001 to P<0.01)","potentiation of the cytodifferentiating action of ATRA and ATO ([4]; C2 1 μM/10 μM + ATRA or + ATO 1 μM, P<0.001 versus either mono-treatment, NB4 and NB4-AsR, 72 hours)",dose inducing CD38 and CD11b expression relative to piclamilast ([5]; ATO-sensitive or ATO-resistant acute promyelocytic leukemia cells) [fold lower],"induction of the early myeloid markers CD38 and CD11b ([5]; C2 as mono-treatment, ATO-sensitive or ATO-resistant APL cells, 72 hours, FIG. 7)","enhancement of the cytodifferentiating action of ATRA ([5]; very low-dose ATRA, ATO-sensitive or ATO-resistant APL cell lines, 72 hours)",induction of apoptosis [6]
"CS(=O)(=O)Nc1ccc(C(=O)O[C@@H](Cc2c(Cl)c[n+]([O-])cc2Cl)c2ccc(OC(F)F)c(OCC3CC3)c2)cc1OCC1CC1 [Compound C2, (-)-3-Cyclopropylmethoxy-4-methanesulfonylamino-benzoic acid 1-(3-cyclopropylmethoxy-4-difluoromethoxy-phenyl)-2-(3,5-dichloro-1-oxy-pyridin-4-yl)-ethyl ester]",more effective than CHF 5152 (roflumilast) or CHF 5859 (piclamilast),potentiates the proapoptotic effects of ATO,potentiates the proapoptotic effects of ATO,more effective than Roflumilast or Piclamilast,strikingly enhances ATO-induced cytotoxicity in leukemia cells through a caspase-dependent mechanism,upregulates the expression of the myeloid marker CD11b,more effective than Roflumilast or Piclamilast,potentiates the cytodifferentiating action of ATRA and ATO,5,capable of inducing the expressions of the early myeloid markers CD38 and CD11b; also recorded: induces upregulation of the myeloid markers (CD38 and CD11b); also recorded: able to partially induce an early myeloid differentiation,enhances the cytodifferentiating action of very low-dose of ATRA,
Cn1c(=O)c2[nH]cnc2n(C)c1=O [theophylline],,,,,,,,,,,,induce apoptosis
